Holding throughout (conditions): COS-7 membranes
For one assay, the target named is T1, α1a-AR (Homo sapiens, UniProt P35348).
T1 construct: expressed in transfected cells; host or cells: COS-7 cells (African Green monkey kidney), membranes
T1 sequence (P35348 1-466): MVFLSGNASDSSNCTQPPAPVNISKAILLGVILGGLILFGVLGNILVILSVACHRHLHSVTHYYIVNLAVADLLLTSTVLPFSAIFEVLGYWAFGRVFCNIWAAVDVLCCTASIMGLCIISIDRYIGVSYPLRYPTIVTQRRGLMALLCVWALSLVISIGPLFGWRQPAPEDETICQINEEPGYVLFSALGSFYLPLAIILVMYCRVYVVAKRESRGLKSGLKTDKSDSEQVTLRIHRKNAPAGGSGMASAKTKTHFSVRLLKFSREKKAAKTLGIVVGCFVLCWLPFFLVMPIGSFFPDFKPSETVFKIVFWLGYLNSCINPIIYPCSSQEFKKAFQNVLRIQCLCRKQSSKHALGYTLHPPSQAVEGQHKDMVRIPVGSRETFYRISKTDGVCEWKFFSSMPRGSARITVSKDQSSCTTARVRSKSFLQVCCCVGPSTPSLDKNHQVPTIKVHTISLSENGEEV
In words: α1-Adrenergic Receptor Binding Assay, 125I-HEAT radio-ligand binding, transfected COS-7 cell membranes, α1a subtype. The procedure:
(§1) Membranes were prepared from COS-7 cells (African Green monkey kidney SV40-transformed cells) that had been transfected with one of the three α1-AR subtypes by the following method: COS cells from ten 100 mm tissue culture plates were scraped into a 5 ml volume of TE (a mixture of 50 mM tris(hydroxymethyl)aminomethane hydrochloride (Tris-HCl) and 5 mM ethylenediaminetetraacetic acid (EDTA) at pH 7.4). The cell suspension was disrupted with a Brinkman Polytron (at a setting of 8) for 10 sec. The disrupted cells were centrifuged at 1000×g for 10 min at 4° C. Supernatants were centrifuged at 34,500×g for 20 min at 4° C. The membrane pellets were suspended in a 2 ml volume of TNE (a mixture of 50 mM Tris-HCl, 5 mM EDTA and 150 mM NaCl at pH7.4). An aliquot of the membrane suspension was stored at −70° C. until use. The protein concentration was determined using a BioRad “DC” protein assay kit following membrane solubilization with Triton X-100.
(§2) Triplicate determinations of radio-ligand binding in the presence of increasing concentrations of testing compound were made. The reagents were added to 96-well polypropylene plate wells. Each assay well contained 140 μL TNE, 25 μL 125′-2-(β-4-hydroxyphenyl)ethylaminomethyltetralone (^125I-HEAT) (specific activity 2200 Ci/mmol, Dupont-New England Nuclear, […] final), 10 μL testing compound dissolved in dimethyl sulfoxide (DMSO) ([…] to 10 μM in half-log increments, final), and 25 μL appropriate α1-AR membrane subtype suspension in TNE (0.5 ng/μL for the α1a and α1b subtypes and 13 ng/μL for the α1d subtype). The plate was incubated at rt for 1 hr. The contents of the wells were filtered through a glass filter (type C) (GF/C) membrane Unifilter plate (Packard Instruments) using the Packard Filtermate cell harvester. The filter plates were dried in a vacuum oven for 30 min at 40° C. 25 μL Microscint 20 liquid scintillation fluid (Packard Instuments) was added to each well. The radioactive content was analyzed in the TopCount microplate scintillation counter (Packard Instruments).
(§3) The Ki values (in nM) shown in Table 1 were determined using GraphPad Prism software.

A further assay concerns the target T2, α1d-AR (Homo sapiens, UniProt P25100).
T2 construct: expressed in transfected cells; host or cells: COS-7 cells (African Green monkey kidney), membranes
T2 sequence (P25100 1-572): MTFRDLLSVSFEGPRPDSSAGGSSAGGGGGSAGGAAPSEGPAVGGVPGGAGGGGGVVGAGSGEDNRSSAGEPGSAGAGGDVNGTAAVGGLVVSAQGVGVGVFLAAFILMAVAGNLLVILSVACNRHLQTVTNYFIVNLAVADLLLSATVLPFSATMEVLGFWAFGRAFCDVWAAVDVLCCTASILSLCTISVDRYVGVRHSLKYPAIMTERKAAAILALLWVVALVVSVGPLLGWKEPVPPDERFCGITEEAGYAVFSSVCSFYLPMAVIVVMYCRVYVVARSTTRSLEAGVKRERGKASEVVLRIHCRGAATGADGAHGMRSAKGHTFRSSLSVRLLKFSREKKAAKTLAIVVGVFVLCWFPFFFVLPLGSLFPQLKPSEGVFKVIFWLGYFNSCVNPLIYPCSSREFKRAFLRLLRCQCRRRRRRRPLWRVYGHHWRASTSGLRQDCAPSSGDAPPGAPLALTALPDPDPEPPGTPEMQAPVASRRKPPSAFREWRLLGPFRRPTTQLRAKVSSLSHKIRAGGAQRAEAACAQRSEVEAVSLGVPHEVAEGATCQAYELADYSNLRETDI
In words: α1-Adrenergic Receptor Binding Assay, 125I-HEAT radio-ligand binding, transfected COS-7 cell membranes, α1d subtype. On the procedure:
as §1, §2, §3

For a further assay, the target named is T3, α1b-AR (Homo sapiens, UniProt P35368).
T3 construct: expressed in transfected cells; host or cells: COS-7 cells (African Green monkey kidney), membranes
T3 sequence (P35368 1-520): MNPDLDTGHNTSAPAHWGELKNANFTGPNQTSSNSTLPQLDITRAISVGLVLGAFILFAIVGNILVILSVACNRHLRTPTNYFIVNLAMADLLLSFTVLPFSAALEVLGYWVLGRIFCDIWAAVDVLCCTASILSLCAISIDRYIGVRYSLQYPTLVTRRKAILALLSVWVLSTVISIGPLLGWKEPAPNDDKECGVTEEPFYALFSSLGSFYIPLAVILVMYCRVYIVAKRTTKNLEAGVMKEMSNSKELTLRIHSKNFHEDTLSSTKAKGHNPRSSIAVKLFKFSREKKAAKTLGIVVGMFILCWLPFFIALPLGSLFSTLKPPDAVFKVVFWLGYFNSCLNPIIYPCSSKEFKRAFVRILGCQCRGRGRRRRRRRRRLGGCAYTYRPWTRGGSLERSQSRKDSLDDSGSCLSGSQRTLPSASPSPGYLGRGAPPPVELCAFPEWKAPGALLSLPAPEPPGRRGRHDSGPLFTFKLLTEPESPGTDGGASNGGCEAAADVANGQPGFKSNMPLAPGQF
In words: α1-Adrenergic Receptor Binding Assay, 125I-HEAT radio-ligand binding, transfected COS-7 cell membranes, α1b subtype. On the procedure: as §1, §2, §3

The mark [1] stands for this setting: average value, read-out: Alpha 1 Ki α1a (1) Average Value.
[2] abbreviates: individual values, read-out: Alpha 1 Ki α1a (2) Individual Values.
Where [3] appears, read: average value, read-out: Alpha 1 Ki α1d (1) Average Value.
The mark [4] stands for this setting: individual values, read-out: Alpha 1 Ki α1d (2) Individual Values.
The mark [5] stands for this setting: average value, read-out: Alpha 1 Ki α1b (1) Average Value.
Setting [6] is: individual values, read-out: Alpha 1 Ki α1b (2) Individual Values.

By Ki is commonly meant the equilibrium dissociation constant of an inhibitor or competing ligand from its target.

The structures appear in SMILES notation. Values joined by “and” are separate entries in the source; they are usually repeats but may differ in a detail not shown here. Identical values can stand only once. Like-named read-outs stand apart in the source and are kept apart here.

For `CC(C)Oc1ccccc1N1CCN(CC2CC(C(=O)N3CCOCC3)=NO2)CC1` (single isomer, unassigned) [Compound 44, {(5S*)-5-[4-(2-isopropoxy-phenyl)-piperazin-1-ylmethyl]-4,5-dihydro-isoxazol-3-yl}-morpholin-4-yl-methanone], the Ki on α1a-AR (setting [1]) amounted to 2.32 nM; at α1a-AR (setting [2]) it was 2.32 nM; on α1d-AR (setting [3]), 19.9 nM; on α1d-AR (setting [4]) it was 19.9 nM; on α1b-AR (setting [5]), 521 nM; on α1b-AR (setting [6]), 521 nM.

As to `CC(C)Oc1ccccc1N1CCN(CC2CC(C(=O)N3CCOCC3)=NO2)CC1` (single isomer, unassigned) [Compound 45, {(5R*)-5-[4-(2-Isopropoxy-phenyl)-piperazin-1-ylmethyl]-4,5-dihydro-isoxazol-3-yl}-morpholin-4-yl-methanone], the Ki on α1a-AR (setting [1]) amounted to 73.1 nM; at α1a-AR (setting [2]), 73.1 nM; at α1d-AR (setting [3]), 297 nM; at α1d-AR (setting [4]), 297 nM; on α1b-AR (setting [5]) it was 1060 nM; on α1b-AR (setting [6]) it was 1060 nM.

Turning to `CC(C)Oc1ccccc1N1CCN(CC2CC(CN3CCCCC3=O)=NO2)CC1` (centres unmarked) [Compound 1, 1-{5-[4-(2-isopropoxy-phenyl)-piperazin-1-ylmethyl]-4,5-dihydro-isoxazol-3-ylmethyl}-piperidin-2-one], the Ki on α1a-AR (setting [1]) is 0.96 nM; at α1a-AR (setting [2]), 0.96 nM; at α1d-AR (setting [3]), 8.5 nM; on α1d-AR (setting [4]) it was 8.5 nM; on α1b-AR (setting [5]), 82 nM; on α1b-AR (setting [6]) it was 82 nM.

As to `CC(C)Oc1ccccc1N1CCN(CC2CC(CN3CCc4ccccc43)=NO2)CC1` (centres unmarked) [Compound 4, 1-{5-[4-(2-isopropoxy-phenyl)-piperazin-1-ylmethyl]-4,5-dihydro-isoxazol-3-ylmethyl}-2,3-dihydro-1H-indole], the Ki on α1a-AR (setting [1]) was determined as 1.9 nM; at α1a-AR (setting [2]) it was 1.9 nM; on α1d-AR (setting [3]), 10 nM; on α1d-AR (setting [4]), 10 nM; at α1b-AR (setting [5]), 101 nM; at α1b-AR (setting [6]), 101 nM.

On to `CC(C)Oc1ccccc1N1CCN(CC2CC(CN3CCCCC3)=NO2)CC1` (centres unmarked) [Compound 5, 1-(2-isopropoxy-phenyl)-4-(3-piperidin-1-ylmethyl-4,5-dihydro-isoxazol-5-ylmethyl)-piperazine], for which the inhibition constant Ki was 10 nM on α1a-AR (setting [1]); 10 nM at α1a-AR (setting [2]); 178 nM at α1d-AR (setting [3]); 178 nM at α1d-AR (setting [4]); 5000 nM on α1b-AR (setting [5]); 5000 nM on α1b-AR (setting [6]).

`CC(C)Oc1ccccc1N1CCN(CC2CC(CN3CCc4ccc(N)cc43)=NO2)CC1` (centres unmarked) [Compound 6, 1-{5-[4-(2-isopropoxy-phenyl)-piperazin-1-ylmethyl]-4,5-dihydro-isoxazol-3-ylmethyl}-2,3-dihydro-1H-indol-6-ylamine]: the Ki at α1a-AR (setting [1]) was 4.3 nM; at α1a-AR (setting [2]), 4.3 nM; on α1d-AR (setting [3]), 46 nM; on α1d-AR (setting [4]), 46 nM; at α1b-AR (setting [5]), 410 nM; at α1b-AR (setting [6]), 410 nM.

As to `CC(C)Oc1ccccc1N1CCN(CC2CC(CN3CCc4ccc(NCc5c(F)cccc5F)cc43)=NO2)CC1` (centres unmarked) [Compound 7, (2,6-difluoro-benzyl)-(1-{5-[4-(2-isopropoxy-phenyl)-piperazin-1-ylmethyl]-4,5-dihydro-isoxazol-3-ylmethyl}-2,3-dihydro-1H-indol-6-yl)-amine], the Ki at α1a-AR (setting [1]) worked out at 6.4 nM; at α1a-AR (setting [2]), 6.4 nM; at α1d-AR (setting [3]) it was 9.4 nM; at α1d-AR (setting [4]) it was 9.4 nM; at α1b-AR (setting [5]), 172 nM; at α1b-AR (setting [6]), 172 nM.

`CC(C)Oc1ccccc1N1CCN(CC2CC(CN3CCc4ccc(NCc5ccccc5F)cc43)=NO2)CC1` (centres unmarked) [Compound 8, (2-fluoro-benzyl)-(1-{5-[4-(2-isopropoxy-phenyl)-piperazin-1-ylmethyl]-4,5-dihydro-isoxazol-3-ylmethyl}-2,3-dihydro-1H-indol-6-yl)-amine]: the Ki is 6.9 nM on α1a-AR (setting [1]); 6.9 nM at α1a-AR (setting [2]); 35 nM on α1d-AR (setting [3]); 35 nM at α1d-AR (setting [4]); 304 nM at α1b-AR (setting [5]); 304 nM on α1b-AR (setting [6]).

For the molecule `COc1cccc(CNc2ccc3c(c2)N(CC2=NOC(CN4CCN(c5ccccc5OC(C)C)CC4)C2)CC3)c1` (centres unmarked) [Compound 9, (1-{5-[4-(2-isopropoxy-phenyl)-piperazin-1-ylmethyl]-4,5-dihydro-isoxazol-3-ylmethyl}-2,3-dihydro-1H-indol-6-yl)-(3-methoxy-benzyl)-amine], the Ki on α1a-AR (setting [1]) worked out at 34 nM; on α1a-AR (setting [2]) it was 34 nM; on α1d-AR (setting [3]), 22 nM; on α1d-AR (setting [4]) it was 22 nM; at α1b-AR (setting [5]) it was 195 nM; on α1b-AR (setting [6]), 195 nM.

As for `CC(C)Oc1ccccc1N1CCN(CC2CC(C(=O)N3CCc4ccccc43)=NO2)CC1` (centres unmarked) [Compound 10, (2,3-dihydro-indol-1-yl)-{5-[4-(2-isopropoxy-phenyl)-piperazin-1-ylmethyl]-4,5-dihydro-isoxazol-3-yl}-methanone], the Ki at α1a-AR (setting [1]) is 2.12 nM; at α1a-AR (setting [2]), 1.4 nM and 3.4 nM and 3.1 nM and 1.9 nM and 0.8 nM; at α1d-AR (setting [3]), 1.3 nM; on α1b-AR (setting [5]), 107 nM; on α1b-AR (setting [6]), 90 nM and 145 nM and 92 nM and 87.6 nM and 121 nM.

Regarding `CC(C)Oc1ccccc1N1CCN(CC2CC(C(=O)N3CCc4ccc([N+](=O)[O-])cc43)=NO2)CC1` (centres unmarked) [Compound 11, {5-[4-(2-isopropoxy-phenyl)-piperazin-1-ylmethyl]-4,5-dihydro-isoxazol-3-yl}-(6-nitro-2,3-dihydro-indol-1-yl)-methanone], the Ki at α1a-AR (setting [1]) is 1.42 nM; at α1a-AR (setting [2]), 2.2 nM and 0.63 nM; at α1d-AR (setting [3]) it was 1.82 nM; at α1d-AR (setting [4]), 3.1 nM and 0.55 nM; at α1b-AR (setting [5]), 145 nM; at α1b-AR (setting [6]) it was 153 nM and 136 nM.

These data come from patent US20080221116A1, “ISOXAZOLINE ALPHA 1a/1d ADRENORECEPTOR ANTAGONISTS” (priority 2006, published 2008).
